Our source for the MIC values is US4808711A, “Cephalosporin derivatives” (Sankei Pharmaceutical Co., Ltd., priority 1985, dated 1989).

Holding throughout (assay type): cell-based
In experiment [1] the test system is S. aureus TASAKI. Kind of experiment: MIC, S. aureus TASAKI. As to conditions: Staphylococcus aureus; S. aureus TASAKI; standard method of Japanese Chemotherapy Association; read-out: MIC. The procedure: (§1) The minimum inhibition concentrations (MIC) of the compounds obtained by the present invention were measured according to the standard method of Japanese Chemotherapy Association.

For experiment [2], the system named is S. aureus 209P JC-1. Kind of experiment: MIC, S. aureus 209P JC-1. As to conditions: Staphylococcus aureus; S. aureus 209P JC-1; read-out: MIC. As to the method: as §1
The subject of experiment [3] is S. aureus ATCC25923. Kind of experiment: MIC, S. aureus ATCC25923. As to conditions: Staphylococcus aureus; S. aureus ATCC25923; read-out: MIC. As to the method:
as §1

The subject of experiment [4] is S. aureus Smith. Kind of experiment: MIC, S. aureus Smith. As to conditions: Staphylococcus aureus, read-out: MIC. As to the method:
as §1

Experiment [5] has as its system S. epidermidis ATCC14990. In words: MIC, S. epidermidis ATCC14990. As to conditions: Staphylococcus epidermidis, read-out: MIC. The procedure:
as §1

The test system of experiment [6] is S. faecalis IFO3826. Kind of experiment: MIC, S. faecalis IFO3826. As to conditions: Enterococcus faecalis, read-out: MIC. The procedure:
as §1

The subject of experiment [7] is B. subtilis ATCC6633. Kind of experiment: MIC, B. subtilis ATCC6633. As to conditions: Bacillus subtilis; B. subtilis ATCC6633; read-out: MIC. The procedure: as §1
The test system of experiment [8] is S. anatum 677-69. In words: MIC, S. anatum 677-69. As to conditions: Salmonella enterica, 67769, read-out: MIC. As to the method: as §1
Experiment [9] concerns S. newport 563. In words: MIC, S. newport 563. As to conditions: Salmonella enterica, read-out: MIC. As to the method: as §1
Experiment [10] concerns S. paratyphi A 144-12-93. In words: MIC, S. paratyphi A 144-12-93. As to conditions: Salmonella enterica, PARATYPHI
The procedure:
as §1

Experiment [11] deals with S. paratyphi B. Kind of experiment: MIC, S. paratyphi B. As to conditions: Salmonella enterica, PARATYPHI
The procedure: as §1

Experiment [12] deals with S. paratyphi C 33-76. Kind of experiment: MIC, S. paratyphi C 33-76. As to conditions: Salmonella enterica, PARATYPHI
The procedure: as §1

The subject of experiment [13] is S. typhi 1099-77. In words: MIC, S. typhi 1099-77. As to conditions: Salmonella enterica, TYPHI. The procedure:
as §1

The subject of experiment [14] is S. typhimurium ATCC13311. Kind of experiment: MIC, S. typhimurium ATCC13311. As to conditions: Salmonella enterica, read-out: MIC. The procedure:
as §1

Experiment [15] concerns S. typhimurium IFO 12529. Kind of experiment: MIC, S. typhimurium IFO 12529. As to conditions: Salmonella enterica, read-out: MIC. The procedure: as §1
In experiment [16] the test system is S. boyadii CDC 2064-59. Kind of experiment: MIC, S. boyadii CDC 2064-59. The procedure:
as §1

Experiment [17] concerns S. dysenteriae 4379-60. Kind of experiment: MIC, S. dysenteriae 4379-60. As to conditions: Shigella dysenteriae, 437960. As to the method: as §1
For experiment [18], the system named is S. flexneri 2a CDC 4807-62. Kind of experiment: MIC, S. flexneri 2a CDC 4807-62. As to conditions: Shigella flexneri, read-out: MIC. The procedure:
as §1

For experiment [19], the system named is S. flexneri Y NCTC 9730. In words: MIC, S. flexneri Y NCTC 9730. As to conditions: Shigella flexneri, NCTC9730, read-out: MIC. The procedure:
as §1

In experiment [20] the test system is S. sonnei SH72-415. Kind of experiment: MIC, S. sonnei SH72-415. As to conditions: Shigella sonnei, SH72415, read-out: MIC. As to the method: as §1
In experiment [21] the test system is E. coli ATCC25922. In words: MIC, E. coli ATCC25922. As to conditions: Escherichia coli, read-out: MIC. The procedure: as §1
Experiment [22] deals with E. coli NIHJ JC-2. In words: MIC, E. coli NIHJ JC-2. As to conditions: Escherichia coli, NIHJJC2, read-out: MIC. The procedure: as §1
Experiment [23] concerns C. freundii IFO12681. In words: MIC, C. freundii IFO12681. As to conditions: Citrobacter freundii, read-out: MIC. As to the method:
as §1

Experiment [24] relates to S. marcescens IFO12648. Kind of experiment: MIC, S. marcescens IFO12648. As to conditions: Serratia marcescens, read-out: MIC. As to the method:
as §1

The test system of experiment [25] is E. cloacae ATCC13047. In words: MIC, E. cloacae ATCC13047. As to conditions: Enterobacter cloacae. As to the method:
as §1

Experiment [26] concerns K. pneumoniae ATCC27736. In words: MIC, K. pneumoniae ATCC27736. As to conditions: Klebsiella pneumoniae, read-out: MIC. As to the method:
as §1

The test system of experiment [27] is P. mirabilis IFO3849. In words: MIC, P. mirabilis IFO3849. As to conditions: Proteus mirabilis, read-out: MIC. As to the method: as §1
Experiment [28] deals with P. rettgeri ATCC14505. In words: MIC, P. rettgeri ATCC14505. As to conditions: Providencia rettgeri, read-out: MIC. As to the method: as §1
Experiment [29] relates to P. vulgaris ATCC6380. In words: MIC, P. vulgaris ATCC6380. As to conditions: Proteus vulgaris, read-out: MIC. As to the method: as §1
In experiment [30] the test system is P. vulgaris ATCC6398. Kind of experiment: MIC, P. vulgaris ATCC6398. As to conditions: Proteus vulgaris, read-out: MIC. The procedure: as §1
For experiment [31], the system named is P. aeruginosa ATCC9721. In words: MIC, P. aeruginosa ATCC9721. As to conditions: Pseudomonas aeruginosa; P. aeruginosa ATCC9721; read-out: MIC. As to the method:
as §1

The test system of experiment [32] is P. cepacia ATCC25416. Kind of experiment: MIC, P. cepacia ATCC25416. As to conditions: Burkholderia cepacia, read-out: MIC. The procedure: as §1
For experiment [33], the system named is P. maltophilia ATCC13637. Kind of experiment: MIC, P. maltophilia ATCC13637. As to conditions: Stenotrophomonas maltophilia. As to the method: as §1
In experiment [34] the test system is P. putida ATCC12633. In words: MIC, P. putida ATCC12633. As to conditions: Pseudomonas putida. The procedure: as §1
The subject of experiment [35] is P. fluorescens ATCC13525. In words: MIC, P. fluorescens ATCC13525. As to conditions: Pseudomonas fluorescens, read-out: MIC. As to the method:
as §1

For experiment [36], the system named is E. Coli GN5482. Kind of experiment: MIC, E. Coli GN5482. As to conditions: Escherichia coli. The procedure: as §1
For experiment [37], the system named is E. cloacae GN7471. Kind of experiment: MIC, E. cloacae GN7471. As to conditions: Enterobacter cloacae. As to the method:
as §1

For experiment [38], the system named is C. freundii GN7391. Kind of experiment: MIC, C. freundii GN7391. As to conditions: Citrobacter freundii. The procedure: as §1
The subject of experiment [39] is S. marcescens GN10851. Kind of experiment: MIC, S. marcescens GN10851. As to conditions: Serratia marcescens. As to the method:
as §1

In experiment [40] the test system is P. rettgeri GN4430. In words: MIC, P. rettgeri GN4430. As to conditions: Providencia rettgeri. The procedure:
as §1

Experiment [41] concerns P. morganii GN5407. Kind of experiment: MIC, P. morganii GN5407. As to conditions: Morganella morganii. The procedure:
as §1

Experiment [42] has as its system P. vulgaris GN7919. Kind of experiment: MIC, P. vulgaris GN7919. As to conditions: Proteus vulgaris. As to the method: as §1
Experiment [43] relates to P. aeruginosa GN10. Kind of experiment: MIC, P. aeruginosa GN10. As to conditions: Pseudomonas aeruginosa. As to the method: as §1
In experiment [44] the test system is E. coli W3630/Rms212. Kind of experiment: MIC, E. coli W3630/Rms212. As to conditions: Escherichia coli. The procedure: as §1
Experiment [45] concerns E. coli W3630/Rms213. Kind of experiment: MIC, E. coli W3630/Rms213. As to conditions: Escherichia coli. The procedure:
as §1

In experiment [46] the test system is E. coli W3630/Rte16. Kind of experiment: MIC, E. coli W3630/Rte16. As to conditions: Escherichia coli. The procedure: as §1

Each structure is given as a SMILES string. In brackets after ≈: the same amount, converted by molar mass.

Regarding `Cn1nnnc1SCC1=C(C(=O)O)N2C(=O)C(NC(=O)C(=NOCC(=O)NNC(=O)c3ccc(O)c(O)c3)c3csc(N)n3)C2SC1` (stereo not drawn) [Example 62], the minimum inhibitory concentration (MIC) in [1] is 1.56 µg/mL (≈ 2.21 µM); in experiment [2], 0.39 µg/mL (≈ 0.553 µM); in [3], 0.39 µg/mL (≈ 0.553 µM); in experiment [4], 3.13 µg/mL (≈ 4.44 µM); in [5], 0.39 µg/mL (≈ 0.553 µM); in experiment [6], greater than 100 µg/mL. Moreover, the MIC in experiment [7] turned out to be 0.39 µg/mL (≈ 0.553 µM); in [8], 0.025 µg/mL (≈ 0.0354 µM); in experiment [9], 0.05 µg/mL (≈ 0.0708 µM); in [10], 0.025 µg/mL (≈ 0.0354 µM); in experiment [11], 0.012 µg/mL (≈ 0.017 µM); in experiment [12], 0.012 µg/mL (≈ 0.017 µM). The MIC in [13] was no more than 0.006 µg/mL; in experiment [14], 0.025 µg/mL (≈ 0.0354 µM); in experiment [15], 0.05 µg/mL (≈ 0.0708 µM); in [16], 0.39 µg/mL (≈ 0.553 µM); in experiment [17], 0.025 µg/mL (≈ 0.0354 µM); in experiment [18], 0.1 µg/mL (≈ 0.142 µM). The minimum inhibitory concentration (MIC) in experiment [19] turned out to be 0.78 µg/mL (≈ 1.11 µM); in [20], 0.05 µg/mL (≈ 0.0708 µM); in [21], 0.2 µg/mL (≈ 0.283 µM); in experiment [22], 0.78 µg/mL (≈ 1.11 µM); in experiment [23] it was 0.39 µg/mL (≈ 0.553 µM); in experiment [24], 0.39 µg/mL (≈ 0.553 µM). The minimal inhibitory concentration (MIC) in experiment [25] worked out at 3.13 µg/mL (≈ 4.44 µM); in [26] it was 0.012 µg/mL (≈ 0.017 µM); in experiment [27], 0.39 µg/mL (≈ 0.553 µM); in experiment [28] it was 1.56 µg/mL (≈ 2.21 µM); in experiment [29] it was 0.39 µg/mL (≈ 0.553 µM); in experiment [30] it was 0.05 µg/mL (≈ 0.0708 µM). The minimum inhibitory concentration (MIC) in experiment [31] came to 0.1 µg/mL (≈ 0.142 µM); in experiment [32], 0.78 µg/mL (≈ 1.11 µM); in experiment [33] it was 1.56 µg/mL (≈ 2.21 µM); in experiment [34], 1.56 µg/mL (≈ 2.21 µM); in experiment [35] it was 12.5 µg/mL (≈ 17.7 µM).

As to `CC(=NNC(=O)NC(C(=O)NC1C(=O)N2C(C(=O)O)=C(CSc3nncs3)CSC12)c1csc(N)n1)c1cccc(O)c1` (stereo not drawn) [Example 104], the MIC in experiment [36] worked out at 0.78 µg/mL (≈ 1.18 µM); in experiment [37], 3.13 µg/mL (≈ 4.73 µM); in experiment [38], 100 µg/mL (≈ 151 µM); in experiment [39] it was 100 µg/mL (≈ 151 µM); in experiment [40], 0.2 µg/mL (≈ 0.302 µM); in experiment [41], 0.39 µg/mL (≈ 0.589 µM). Also, the MIC in experiment [42] came to 50 µg/mL (≈ 75.6 µM); in [43], 6.25 µg/mL (≈ 9.44 µM); in experiment [44], 0.39 µg/mL (≈ 0.589 µM); in experiment [45] it was 0.1 µg/mL (≈ 0.151 µM); in experiment [46], 0.2 µg/mL (≈ 0.302 µM).

On to `CC(=O)Oc1cc(OC(C)=O)cc(C(=O)NNC(=O)NC(C(=O)NC2C(=O)N3C(C(=O)O)=C(CSc4nncs4)CSC23)c2csc(N)n2)c1` (stereo not drawn) [Example 118], for which the minimal inhibitory concentration (MIC) was 1.56 µg/mL (≈ 2.04 µM) in experiment [36]; 6.25 µg/mL (≈ 8.18 µM) in experiment [37]; greater than 100 µg/mL in experiment [38]; 100 µg/mL (≈ 131 µM) in experiment [39]; 0.39 µg/mL (≈ 0.511 µM) in experiment [40]; 0.78 µg/mL (≈ 1.02 µM) in experiment [41]. Further, the minimum inhibitory concentration (MIC) in [42] stood at 100 µg/mL (≈ 131 µM); in [43], 6.25 µg/mL (≈ 8.18 µM); in experiment [44] it was 0.39 µg/mL (≈ 0.511 µM); in experiment [45] it was 0.2 µg/mL (≈ 0.262 µM); in [46], 0.39 µg/mL (≈ 0.511 µM).

The MIC is the lowest concentration found to suppress growth.
